Test results as given in patent US20170157135A1 (Novogen Limited, priority 2013, published 2017).

Assays:
Type in all cases: cell-based
[1] = test system: SK-Mel-28 melanoma cells; assay: Anti-proliferative assay (cell-titre luminescent), SK-Mel-28; conditions: Homo sapiens; SK-Mel-28, 72 hours, luminescence
Description: (§1) The ability of compounds 2002, 2009 and 2013-2064 to inhibit the proliferation of cancer cells representative of neuroblastoma, melanoma, prostate cancer, colorectal cancer, non-small cell lung carcinoma, and triple negative breast cancer was assessed. These studies were conducted by contract research (GVK-BIO). Briefly, a pre-determined number of cells as calculated from cell growth assays for each of the cell lines employed were seeded into their respective culture medium (using ATCC culture parameters—http://www.atcc.org) and cultured for 24 h at 37° C. and 5% CO2 in 96-well culture plates. Once attached, each cell line was then exposed to various concentrations of each respective analogue (30, 10, 3, 1, 0.3 and 0.1 μM), cultured for a further 72 hours and exposed to cell-titre luminescent reagent (100 μL/well) for a further 30 minutes). Luminescence was captured using an EnVision multilabel reader and the data for each analogue concentration compared against no treatment control. Cell viability was normalized to control (vehicle alone) and dose-response curves, and half maximal effective concentration (EC50) values were determined using Graph Pad Prism 6 (nonlinear regression sigmoidal dose-response variable slope).

[2] = test system: MDA-MB-231 breast cancer cells; assay: Anti-proliferative assay (cell-titre luminescent), MDA-MB-231; conditions: Homo sapiens; MDA-MB-231, 72 hours, luminescence
Description: as §1

[3] = test system: PC3 prostate cancer cells; assay: Anti-proliferative assay (cell-titre luminescent), PC3; conditions: PC3, 72 hours, luminescence
Description: as §1

[4] = test system: CaCo2 colorectal cancer cells; assay: Anti-proliferative assay (cell-titre luminescent), CaCo2; conditions: Homo sapiens, Caco-2; CaCo2, 72 hours, luminescence
Description: as §1

[5] = test system: A549 lung (NSLC) cells; assay: Anti-proliferative assay (cell-titre luminescent), A549; conditions: Homo sapiens; A549, 72 hours, luminescence
Description: as §1

[6] = test system: DU145 prostate cancer cells; assay: Anti-proliferative assay (cell-titre luminescent), DU145; conditions: Homo sapiens, DU-145; DU145, 72 hours, luminescence
Description: as §1

[7] = test system: SK-N-SH neuroblastoma cells; assay: Anti-proliferative assay (cell-titre luminescent), SK-N-SH; conditions: Homo sapiens, 72 hours, luminescence
Description: as §1

| Compound | IC50 [1] | IC50 [2] | IC50 [3] | IC50 [4] | IC50 [5] | IC50 [6] | IC50 [7] |
| --- | --- | --- | --- | --- | --- | --- | --- |
| COc1ccc(CCN2CCN(C(=O)/C=C/c3c(C)n(CCCN(C)C)c4ccccc34)CC2)cc1 [Compound 2013, (E)-3-(1-(3-(dimethylamino)propyl)-2-methyl-1H-indol-3-yl)-1-(4-(4-methoxyphenethyl)piperazin-1-yl)prop-2-en-1-one] | 3.8 µM | 6.8 µM | 4.8 µM | 9.1 µM | 6.1 µM | 10 µM | 3.2 µM |
| Cc1c(/C=C/C(=O)N2CCN(CCc3ccc4c(c3)OCO4)CC2)c2ccccc2n1CCCN(C)C [Compound 2014, (E)-1-(4-(2-(benzo[d][1,3]dioxol-5-yl)ethyl)piperazin-1-yl)-3-(1-(3-(dimethylamino)propyl)-2-methyl-1H-indol-3-yl)prop-2-en-1-one] | 3.2 µM | 6.2 µM | 6.5 µM | 9 µM | 25.7 µM | 7.6 µM | 3.7 µM |
| Cc1c(/C=C/C(=O)N2CCN(CCc3cccc(F)c3)CC2)c2ccccc2n1CCCN(C)C [Compound 2015, (E)-3-(1-(3-(dimethylamino)propyl)-2-methyl-1H-indol-3-yl)-1-(4-(3-fluorophenethyl)piperazin-1-yl)prop-2-en-1-one] | 3.9 µM | 21.1 µM | 12.4 µM | 15.9 µM | 14.1 µM | 39.2 µM | 8.8 µM |
| COc1cccc(CCN2CCN(C(=O)/C=C/c3c(C)n(CCCN(C)C)c4ccccc34)CC2)c1 [Compound 2016, (E)-3-(1-(3-(dimethylamino)propyl)-2-methyl-1H-indol-3-yl)-1-(4-(3-methoxyphenethyl)piperazin-1-yl)prop-2-en-1-one] | 4.1 µM | 10.8 µM | 5.8 µM | 8.9 µM | 4.8 µM | 5.4 µM | 5 µM |
| Cc1c(/C=C/C(=O)N2CCN(CCc3ccccc3)CC2)c2ccccc2n1CCCN(C)C [Compound 2017, (E)-3-(1-(3-(dimethylamino)propyl)-2-methyl-1H-indol-3-yl)-1-(4-phenethylpiperazin-1-yl)prop-2-en-1-one] | 8.7 µM | 18.5 µM | 11.5 µM | 12.6 µM | 13.6 µM | 15.7 µM | 17.6 µM |
| COc1ccc2c(c1)c(/C=C/C(=O)N1CCN(CCc3ccc(F)cc3)CC1)c(C)n2CCCN(C)C [Compound 2018, (E)-3-(1-(3-(dimethylamino)propyl)-5-methoxy-2-methyl-1H-indol-3-yl)-1-(4-(4-fluorophenethyl)piperazin-1-yl)prop-2-en-1-one] | 4.3 µM | 5.7 µM | 8 µM | 38 µM | 15.9 µM | 12.1 µM | 8.5 µM |
| COc1ccc(CCN2CCN(C(=O)/C=C/c3c(C)n(CCCN(C)C)c4ccc(OC)cc34)CC2)cc1 [Compound 2019, (E)-3-(1-(3-(dimethylamino)propyl)-5-methoxy-2-methyl-1H-indol-3-yl)-1-(4-(4-methoxyphenethyl)piperazin-1-yl)prop-2-en-1-one] | 6.3 µM | 5.1 µM | 9.3 µM | 25.1 µM | 10.6 µM | 14.8 µM | 5.5 µM |
| COc1ccc2c(c1)c(/C=C/C(=O)N1CCN(CCc3ccc4c(c3)OCO4)CC1)c(C)n2CCCN(C)C [Compound 2020, (E)-1-(4-(2-(benzo[d][1,3]dioxol-5-yl)ethyl)piperazin-1-yl)-3-(1-(3-(dimethylamino)propyl)-5-methoxy-2-methyl-1H-indol-3-yl)prop-2-en-1-one] | 3.5 µM | 5.1 µM | 5.1 µM | 4.5 µM | 3.5 µM | 5.7 µM | 3.9 µM |
| COc1ccc2c(c1)c(/C=C/C(=O)N1CCN(CCc3cccc(F)c3)CC1)c(C)n2CCCN(C)C [Compound 2021, (E)-3-(1-(3-(dimethylamino)propyl)-5-methoxy-2-methyl-1H-indol-3-yl)-1-(4-(3-fluorophenethyl)piperazin-1-yl)prop-2-en-1-one] | 4.3 µM | 4.8 µM | 7.2 µM | 7.4 µM | 5.4 µM | 6.9 µM | 5.4 µM |
| COc1cccc(CCN2CCN(C(=O)/C=C/c3c(C)n(CCCN(C)C)c4ccc(OC)cc34)CC2)c1 [Compound 2022, (E)-3-(1-(3-(dimethylamino)propyl)-5-methoxy-2-methyl-1H-indol-3-yl)-1-(4-(3-methoxyphenethyl)piperazin-1-yl)prop-2-en-1-one] | 17.2 µM | 11.3 µM | 7.6 µM | 21.5 µM | 12.7 µM | 22 µM | 12.5 µM |
| CCN(CC)CCCn1c(C)c(/C=C/C(=O)N2CCN(CCc3ccc(F)cc3)CC2)c2cc(OC)ccc21 [Compound 2023, (E)-3-(1-(3-(diethylamino)propyl)-5-methoxy-2-methyl-1H-indol-3-yl)-1-(4-(4-fluorophenethyl)piperazin-1-yl)prop-2-en-1-one] | 2.7 µM | 4.6 µM | 5.6 µM | 10.3 µM | 5.2 µM | 4.4 µM | 3.6 µM |
| CCN(CC)CCCn1c(C)c(/C=C/C(=O)N2CCN(CCc3ccc(OC)cc3)CC2)c2cc(OC)ccc21 [Compound 2024, (E)-3-(1-(3-(diethylamino)propyl)-5-methoxy-2-methyl-1H-indol-3-yl)-1-(4-(4-methoxyphenethyl)piperazin-1-yl)prop-2-en-1-one] | 3 µM | 4.1 µM | 5.7 µM | 5.3 µM | 7.7 µM | 8.4 µM | 3.4 µM |
| CCN(CC)CCCn1c(C)c(/C=C/C(=O)N2CCN(CCc3ccc4c(c3)OCO4)CC2)c2cc(OC)ccc21 [Compound 2025, (E)-1-(4-(2-(benzo[d][1,3]dioxol-5-yl)ethyl)piperazin-1-yl)-3-(1-(3-(diethylamino)propyl)-5-methoxy-2-methyl-1H-indol-3-yl)prop-2-en-1-one] | 4.1 µM | 30 µM | 7.6 µM | 16.5 µM | 4.7 µM | 15.6 µM | 4.1 µM |
| CCN(CC)CCCn1c(C)c(/C=C/C(=O)N2CCN(CCc3cccc(OC)c3)CC2)c2cc(OC)ccc21 [Compound 2027, (E)-3-(1-(3-(diethylamino)propyl)-5-methoxy-2-methyl-1H-indol-3-yl)-1-(4-(3-methoxyphenethyl)piperazin-1-yl)prop-2-en-1-one] | 3.8 µM | 5.6 µM | 9.3 µM | 12.3 µM | 23.5 µM | 51.9 µM | 8.2 µM |
| CCN(CC)CCCn1c(C)c(/C=C/C(=O)N2CCN(CCc3ccccc3)CC2)c2cc(OC)ccc21 [Compound 2028, (E)-3-(1-(3-(diethylamino)propyl)-5-methoxy-2-methyl-1H-indol-3-yl)-1-(4-phenethylpiperazin-1-yl)prop-2-en-1-one] | 2 µM | 5.2 µM | 5.3 µM | 4.1 µM | 4.2 µM | 5.3 µM | 2.7 µM |
| COc1ccc2c(c1)c(/C=C/C(=O)N1CCN(CCc3ccc(F)cc3)CC1)c(C)n2CCCN1CCN(C)CC1 [Compound 2029, (E)-1-(4-(4-fluorophenethyl)piperazin-1-yl)-3-(5-methoxy-2-methyl-1-(3-(4-methylpiperazin-1-yl)propyl)-1H-indol-3-yl)prop-2-en-1-one] | 5.7 µM | 3.3 µM | 2.9 µM | 4.4 µM | 4.5 µM | 4.2 µM | 2.8 µM |
| COc1ccc(CCN2CCN(C(=O)/C=C/c3c(C)n(CCCN4CCN(C)CC4)c4ccc(OC)cc34)CC2)cc1 [Compound 2030, (E)-3-(5-methoxy-2-methyl-1-(3-(4-methylpiperazin-1-yl)propyl)-1H-indol-3-yl)-1-(4-(4-methoxyphenethyl)piperazin-1-yl)prop-2-en-1-one] | 3.4 µM | 4.3 µM | 4 µM | 5.4 µM | 7.9 µM | 7.9 µM | 3.6 µM |
| COc1ccc2c(c1)c(/C=C/C(=O)N1CCN(CCc3ccc4c(c3)OCO4)CC1)c(C)n2CCCN1CCN(C)CC1 [Compound 2031, (E)-1-(4-(2-(benzo[d][1,3]dioxol-5-yl)ethyl)piperazin-1-yl)-3-(5-methoxy-2-methyl-1-(3-(4-methylpiperazin-1-yl)propyl)-1H-indol-3-yl)prop-2-en-1-one] | 3.9 µM | 5.2 µM | 2.1 µM | 3.7 µM | 4.2 µM | 6.2 µM | 3.7 µM |
